Data taken from patent US20110300073A1, “18F-LABELLED THREE-AND FOUR-CARBON ACIDS FOR PET IMAGING” (priority 2008, published 2011).

Tests used:
[1] = test system: prostate cancer CWR22RV1 xenografts; experiment: MicroPET imaging of nude mice with CWR22RV1 xenografts; format: in vivo
Procedure: Small animal PET imaging was performed on MicroPET, to evaluate the potential of 2-[^18F]-fluoropropanoic acid (2-[^18F]-FPA), and 2-[^18F]-fluorobutanoic acid (2-[^18F]-FBA) as tumor imaging agents in mice with prostate cancer CWR22RV1 xenografts. […] In addition to uptake in the tumor, there is high uptake in heart and brain.
The mice were imaged using MicroPET first with [^18F]-FDG after 4 hour fasting 1 hour post injection. The activity was allowed to decay for 20 hrs and the same mice were imaged with 2-[^18F]-FPA 1 hour post injection. In case of 2-[^18F]-FPA, the animals were not fasted. […] 2-[^18F]-FPA has high uptake in brain like [^18F]
(§1) All animal experiments were done in accordance with protocols approved by the Institutional Animal Care and Use Committee of Memorial Sloan-Kettering Cancer Center and followed National Institutes of Health guidelines for animal welfare. Subcutaneous tumors were produced in nude mice (20-25 g; Charles River Laboratories) by subcutaneous injection of 5×10^6 tumor cells in 200 μl consisting of 100 μl of cell culture medium and 100 μl of Matrigel under 2% Isofluorane anesthesia on the right forelimb of mice.
Imaging was performed by use of a dedicated small-animal PET scanner (Focus 120 microPET; Siemens Medical Solutions USA, Inc.). Mice were maintained under 2% isoflurane anesthesia in oxygen at 2 L/min during the entire scanning period. Imaging was performed one hour post administration of 11.1 MBq (300 μCi) of either 2-[^18F]-FPA or [^18F]-FDG via the lateral tail vein. An energy window of 350-700 keV and a coincidence timing window of 6 ns were used. The image data were corrected for non-uniformity of the scanner response, dead time count losses, and physical decay to the time of injection. No correction was applied for attenuation, scatter, or partial-volume averaging. The measured reconstructed spatial resolution of the Focus 120 scanner is ˜1.6 mm full width at half maximum at the center of the field of view.

[2] = test system: CWR22RV1 xenografts; experiment: single isotope [18F] biodistribution study in mice with CWR22rv1 tumors; format: in vivo; conditions: for tumor to organ ratio, blood / tumor to organ ratio, bone / tumor to organ ratio, heart / tumor to organ ratio, kidneys / tumor to organ ratio, large intestine / tumor to organ ratio, liver / tumor to organ ratio, lungs / tumor to organ ratio, muscle / tumor to organ ratio, small intestine / tumor to organ ratio, spine / tumor to organ ratio, spleen / tumor to organ ratio, stomach: tail vein, nude mice with CWR22RV1 xenografts
Procedure: as §1
For single isotope ([^18F]) biodistribution studies, mice with CWR22rv1 tumors were injected intravenously in the tail vein with 3.7-5.5 MBq (100-150 μCi) of [^18F]-FPA in 200 μL of saline. Radioactivity in the syringe before and after administration was measured in an energy-calibrated dose calibrator (CRC-15R; Capintec) and exact quantity received by each animal was determined. The animals were euthanized at different time points and then the organs were harvested. [^18F] radioactivity was measured in a calibrated gamma counter (Perkin Elmer 1480 Wizard 3 Auto Gamma counter, Waltham, Mass.) using 400-600 keV energy window and decay correction. The counts were converted into activity and % ID/g was calculated by dividing with decay corrected injected activity and weight of the organ. […] In addition to tumor, there is high uptake in blood and heart. The tumor to organ ratio of 2-[^18F]-FPA at 1, 2, 3 and 4 hour post injection is: […]

[3] = test system: rats; conditions: Dreisbach's Handbook of Poisoning; cited from earlier work
[4] = test system: rats; experiment: toxicity in rats (oral LD50 / single dose); conditions: given at 212 mg/kg to rats
[5] = summary over 1-4 hour post injection

## CC([18F])C(=O)O (centres unmarked) [2-[^18F]-FPA, 2-[^18F]-fluoropropanoic acid]
[1]; 1 hour post injection
  uptake in brain (MicroPET): high uptake
[1]; 1 hour post injection, FIG. 1
  accumulation in the kidneys of mice, unlike [18F]-FDG: much lower accumulation
[1]; 1 hour post injection, same mice, FIG. 1
  tumor visualization as compared to [18F]-FDG: much more clearly
[1]; one hour post administration
  uptake in heart (MicroPET): high uptake
[1]; one hour post administration, transaxial and coronal slices, 5 minute acquisition time
  tumor visualization in MicroPET image: easily visualized
[2]; 1, 2, 3 and 4 hour post administration via tail vein
  biodistribution during the time of study: remains similar
[2]; 1-4 hour post administration
  accumulation of tracer in tumor: considerable accumulation
  uptake in blood: high uptake
  uptake in heart (biodistribution): high uptake
[2]; 1 hour post injection
  tumor to organ ratio, blood: 1.05
  tumor to organ ratio, bone: 2.79
  tumor to organ ratio, heart: 0.90
  tumor to organ ratio, kidneys: 1.43
  tumor to organ ratio, large intestine: 1.39
  tumor to organ ratio, liver: 1.35
  tumor to organ ratio, lungs: 1.22
  tumor to organ ratio, muscle: 1.79
  tumor to organ ratio, small intestine: 1.26
  tumor to organ ratio, spine: 1.76
  tumor to organ ratio, spleen: 1.40
  tumor to organ ratio, stomach: 2.50
[2]; 2 hours post injection
  tumor to organ ratio, blood: 1.03
  tumor to organ ratio, bone: 2.14
  tumor to organ ratio, heart: 0.94
  tumor to organ ratio, kidneys: 1.57
  tumor to organ ratio, large intestine: 1.49
  tumor to organ ratio, liver: 1.24
  tumor to organ ratio, lungs: 1.17
  tumor to organ ratio, muscle: 1.79
  tumor to organ ratio, small intestine: 1.57
  tumor to organ ratio, spine: 1.61
  tumor to organ ratio, spleen: 1.56
  tumor to organ ratio, stomach: 3.60
[2]; 3 hours post injection
  tumor to organ ratio, blood: 1.04
  tumor to organ ratio, bone: 2.58
  tumor to organ ratio, heart: 1.07
  tumor to organ ratio, kidneys: 1.60
  tumor to organ ratio, large intestine: 1.51
  tumor to organ ratio, liver: 1.33
  tumor to organ ratio, lungs: 1.30
  tumor to organ ratio, muscle: 1.76
  tumor to organ ratio, small intestine: 1.58
  tumor to organ ratio, spine: 1.57
  tumor to organ ratio, spleen: 1.62
  tumor to organ ratio, stomach: 4.48
[2]; 4 hours post injection
  tumor to organ ratio, blood: 1.06
  tumor to organ ratio, bone: 1.90
  tumor to organ ratio, heart: 1.00
  tumor to organ ratio, kidneys: 1.29
  tumor to organ ratio, large intestine: 1.87
  tumor to organ ratio, liver: 1.41
  tumor to organ ratio, lungs: 1.32
  tumor to organ ratio, muscle: 1.85
  tumor to organ ratio, small intestine: 1.44
  tumor to organ ratio, spine: 1.44
  tumor to organ ratio, spleen: 1.56
  tumor to organ ratio, stomach: 3.54
[2]; [5]
  tumor to organ ratio, heart (overall): around 0.95
  tumor to organ ratio, most of the organs except heart: greater than 1

## O=C(O)CF [2-fluoroacetic acid]
[3]
  oral LD50 in rats: 0.22 mg/kg

## CC(F)C(=O)O (centres unmarked) [2-fluoropropanoic acid]
[4]
  toxicity in rats: no toxicity was observed

## OC[C@H]1OC(O)[C@H]([18F])[C@@H](O)[C@@H]1O (some centres unmarked) [[^18F]-FDG, [^18F]-fluorodeoxyglucose, reference compound]
[1]; 1 hour post injection
  uptake in brain (MicroPET): high uptake
